Source: patent US10457703B2, “Bile acid derivatives as FXR/TGR5 agonists and methods of use thereof” (ENANTA PHARMACEUTICALS, INC., priority 2015, dated 2019)

Molecular target: human FXR (NR1H4) (Homo sapiens (Human), UniProt Q96RI1)
Experiment: Human FXR (NR1H4) Assay (Gal4 promoter driven luciferase reporter, Indigo Bioscience kit);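 as to Efficacy (%): 100% equals the efficacy of CDCA; efficacy normalized to CDCA set as 100%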
Format: cell-based
Settings: for EC50: Human FXR (NR1H4) Assay, potency ranges; for Emax: read-out: Efficacy (%)
In short: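 CHO reporter cells expressing human FXR with an FXR-responsive luciferase reporter, treated with compound doses at 0.2% DMSO. Incubation lasted 22 h at 37 °C before luciferase detection reagent was added. Luminescence was then read.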

Sequence of human FXR (NR1H4) (Q96RI1 whole entry, the tested form may be a part): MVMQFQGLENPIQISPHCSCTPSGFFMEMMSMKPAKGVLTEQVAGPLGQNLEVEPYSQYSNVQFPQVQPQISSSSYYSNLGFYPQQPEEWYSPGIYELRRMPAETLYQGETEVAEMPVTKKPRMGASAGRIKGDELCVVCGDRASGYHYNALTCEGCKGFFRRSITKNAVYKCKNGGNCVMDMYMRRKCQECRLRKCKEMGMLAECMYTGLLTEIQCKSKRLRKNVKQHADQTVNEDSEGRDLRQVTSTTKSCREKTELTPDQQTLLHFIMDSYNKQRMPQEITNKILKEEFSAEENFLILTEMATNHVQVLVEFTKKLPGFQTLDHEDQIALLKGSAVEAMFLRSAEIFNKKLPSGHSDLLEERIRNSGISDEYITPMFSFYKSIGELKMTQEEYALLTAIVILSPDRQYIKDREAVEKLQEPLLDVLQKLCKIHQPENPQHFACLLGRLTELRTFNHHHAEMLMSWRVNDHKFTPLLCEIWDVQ

Row | SMILES | EC50 [nM] | Emax [%]
1 | CC[C@H]1[C@@H](O)[C@@H]2[C@H](CC[C@]3(C)[C@@H]([C@H](C)CCOC(=O)N(CC)CC)CC[C@@H]23)[C@@]2(C)CC[C@@H](O)C[C@@H]12 [Example 163] | 100 to 1000 | 266
2 | CC[C@H]1[C@@H](O)[C@@H]2[C@H](CC[C@]3(C)[C@@H]([C@H](C)CCOC(=O)N(C)OC)CC[C@@H]23)[C@@]2(C)CC[C@@H](O)C[C@@H]12 [Example 164] | 100 to 1000 | 191
3 | CC[C@H]1[C@@H](O)[C@@H]2[C@H](CC[C@]3(C)[C@@H]([C@H](C)CCCOC(=O)N4CCCCC4)CC[C@@H]23)[C@@]2(C)CC[C@@H](O)C[C@@H]12 [Example 165] | 1000 to 10000 | 158
4 | CC[C@H]1[C@@H](O)[C@@H]2[C@H](CC[C@]3(C)[C@@H]([C@H](C)CCOC(=O)Nc4ccc(C(C)(C)C)cc4)CC[C@@H]23)[C@@]2(C)CC[C@@H](O)C[C@@H]12 [Example 166] | 1000 to 10000 | 30
5 | CC[C@H]1[C@@H](O)[C@@H]2[C@H](CC[C@]3(C)[C@@H]([C@H](C)CCOC(=O)NC4CCS(=O)(=O)CC4)CC[C@@H]23)[C@@]2(C)CC[C@@H](O)C[C@@H]12 [Example 167] | 100 to 1000 | 321
6 | CC[C@H]1[C@@H](O)[C@@H]2[C@H](CC[C@]3(C)[C@@H]([C@H](C)CCOC(=O)N[C@H]4CCCC[C@@H]4O)CC[C@@H]23)[C@@]2(C)CC[C@@H](O)C[C@@H]12 [Example 168] | 100 to 1000 | 302
7 | CC[C@H]1[C@@H](O)[C@@H]2[C@H](CC[C@]3(C)[C@@H]([C@H](C)CCOC(=O)N4CCC(O)CC4)CC[C@@H]23)[C@@]2(C)CC[C@@H](O)C[C@@H]12 [Example 169] | 100 to 1000 | 257
8 | CC[C@H]1[C@@H](O)[C@@H]2[C@H](CC[C@]3(C)[C@@H]([C@H](C)CCOC(=O)N4CCN(c5ccccc5OC)CC4)CC[C@@H]23)[C@@]2(C)CC[C@@H](O)C[C@@H]12 [Example 170] | < 100 | 283
9 | CC[C@H]1[C@@H](O)[C@@H]2[C@H](CC[C@]3(C)[C@@H]([C@H](C)CCOC(=O)N4CCC(C(N)=O)CC4)CC[C@@H]23)[C@@]2(C)CC[C@@H](O)C[C@@H]12 [Example 171] | 100 to 1000 | 179
10 | CC[C@H]1[C@@H](O)[C@@H]2[C@H](CC[C@]3(C)[C@@H]([C@H](C)CCOC(=O)N[C@H](C)CCO)CC[C@@H]23)[C@@]2(C)CC[C@@H](O)C[C@@H]12 [Example 172] | 100 to 1000 | 201
11 | CC[C@H]1[C@@H](O)[C@@H]2[C@H](CC[C@]3(C)[C@@H]([C@H](C)CCOC(=O)N4CCc5sccc5C4)CC[C@@H]23)[C@@]2(C)CC[C@@H](O)C[C@@H]12 [Example 173] | 100 to 1000 | 209
12 | CC[C@H]1[C@@H](O)[C@@H]2[C@H](CC[C@]3(C)[C@@H]([C@H](C)CCOC(=O)NCCCCCO)CC[C@@H]23)[C@@]2(C)CC[C@@H](O)C[C@@H]12 [Example 174] | < 100 | 228
13 | CC[C@H]1[C@@H](O)[C@@H]2[C@H](CC[C@]3(C)[C@@H]([C@H](C)CCOC(=O)N[C@@H](C)C4CC4)CC[C@@H]23)[C@@]2(C)CC[C@@H](O)C[C@@H]12 [Example 175] | 100 to 1000 | 210
14 | CC[C@H]1[C@@H](O)[C@@H]2[C@H](CC[C@]3(C)[C@@H]([C@H](C)CCOC(=O)NC(C(C)C)C(C)C)CC[C@@H]23)[C@@]2(C)CC[C@@H](O)C[C@@H]12 [Example 176] | 1000 to 10000 | 368
15 | CC[C@H]1[C@@H](O)[C@@H]2[C@H](CC[C@]3(C)[C@@H]([C@H](C)CCOC(=O)NCCC4CC4)CC[C@@H]23)[C@@]2(C)CC[C@@H](O)C[C@@H]12 [Example 177] | 100 to 1000 | 460
16 | CC[C@H]1[C@@H](O)[C@@H]2[C@H](CC[C@]3(C)[C@@H]([C@H](C)CCOC(=O)N4CCC(N5CCCCC5)CC4)CC[C@@H]23)[C@@]2(C)CC[C@@H](O)C[C@@H]12 [Example 178] | 100 to 1000 | 196
17 | CC[C@H]1[C@@H](O)[C@@H]2[C@H](CC[C@]3(C)[C@@H]([C@H](C)CCOC(=O)N(CCO)CCO)CC[C@@H]23)[C@@]2(C)CC[C@@H](O)C[C@@H]12 [Example 179] | 100 to 1000 | 333
18 | CC[C@H]1[C@@H](O)[C@@H]2[C@H](CC[C@]3(C)[C@@H]([C@H](C)CCOC(=O)N4CCCCC4CO)CC[C@@H]23)[C@@]2(C)CC[C@@H](O)C[C@@H]12 (stereo partly drawn) [Example 180] | 100 to 1000 | 390
19 | CC[C@H]1[C@@H](O)[C@@H]2[C@H](CC[C@]3(C)[C@@H]([C@H](C)CCOC(=O)N4CC[C@H](O)C4)CC[C@@H]23)[C@@]2(C)CC[C@@H](O)C[C@@H]12 [Example 181] | < 100 | 382
20 | CC[C@H]1[C@@H](O)[C@@H]2[C@H](CC[C@]3(C)[C@@H]([C@H](C)CCOC(=O)N4C[C@@H](C)O[C@@H](C)C4)CC[C@@H]23)[C@@]2(C)CC[C@@H](O)C[C@@H]12 [Example 182] | 100 to 1000 | 419

Row | SMILES | EC50 [nM] | Emax [%]
21 | CC[C@H]1[C@@H](O)[C@@H]2[C@H](CC[C@]3(C)[C@@H]([C@H](C)CCOC(=O)N4CCC(CO)(CCl)CC4)CC[C@@H]23)[C@@]2(C)CC[C@@H](O)C[C@@H]12 [Example 183] | < 100 | 451
22 | CC[C@H]1[C@@H](O)[C@@H]2[C@H](CC[C@]3(C)[C@@H]([C@H](C)CCOC(=O)N4CCCC4c4cccc(Cl)c4)CC[C@@H]23)[C@@]2(C)CC[C@@H](O)C[C@@H]12 (stereo partly drawn) [Example 184] | 1000 to 10000 | 213
23 | CC[C@H]1[C@@H](O)[C@@H]2[C@H](CC[C@]3(C)[C@@H]([C@H](C)CCOC(=O)N[C@H]4CC[C@H](O)CC4)CC[C@@H]23)[C@@]2(C)CC[C@@H](O)C[C@@H]12 [Example 185] | 100 to 1000 | 392
24 | CC[C@H]1[C@@H](O)[C@@H]2[C@H](CC[C@]3(C)[C@@H]([C@H](C)CCOC(=O)NCCc4ccccn4)CC[C@@H]23)[C@@]2(C)CC[C@@H](O)C[C@@H]12 [Example 186] | 100 to 1000 | 373
25 | CC[C@H]1[C@@H](O)[C@@H]2[C@H](CC[C@]3(C)[C@@H]([C@H](C)CCOC(=O)NCCCC(=O)OC)CC[C@@H]23)[C@@]2(C)CC[C@@H](O)C[C@@H]12 [Example 187] | 100 to 1000 | 421
26 | CC[C@H]1[C@@H](O)[C@@H]2[C@H](CC[C@]3(C)[C@@H]([C@H](C)CCOC(=O)NCC4CCCCC4)CC[C@@H]23)[C@@]2(C)CC[C@@H](O)C[C@@H]12 [Example 188] | 100 to 1000 | 459
27 | CC[C@H]1[C@@H](O)[C@@H]2[C@H](CC[C@]3(C)[C@@H]([C@H](C)CCOC(=O)NCc4ccc(C(C)(C)C)cc4)CC[C@@H]23)[C@@]2(C)CC[C@@H](O)C[C@@H]12 [Example 189] | 1000 to 10000 | 215
28 | CC[C@H]1[C@@H](O)[C@@H]2[C@H](CC[C@]3(C)[C@@H]([C@H](C)CCOC(=O)NCC(C)(C)C)CC[C@@H]23)[C@@]2(C)CC[C@@H](O)C[C@@H]12 [Example 190] | 100 to 1000 | 410
29 | CC[C@H]1[C@@H](O)[C@@H]2[C@H](CC[C@]3(C)[C@@H]([C@H](C)CCOC(=O)Nc4ccccc4)CC[C@@H]23)[C@@]2(C)CC[C@@H](O)C[C@@H]12 [Example 191] | 1000 to 10000 | 330
30 | CC[C@H]1[C@@H](O)[C@@H]2[C@H](CC[C@]3(C)[C@@H]([C@H](C)CCOC(=O)NC(C)(C)C)CC[C@@H]23)[C@@]2(C)CC[C@@H](O)C[C@@H]12 [Example 192] | 1000 to 10000 | 186
31 | CC[C@H]1[C@@H](O)[C@@H]2[C@H](CC[C@]3(C)[C@@H]([C@H](C)CCOC(=O)Nc4ccc(F)cc4Cl)CC[C@@H]23)[C@@]2(C)CC[C@@H](O)C[C@@H]12 [Example 193] | 1000 to 10000 | 179
32 | CC[C@H]1[C@@H](O)[C@@H]2[C@H](CC[C@]3(C)[C@@H]([C@H](C)CCOC(=O)Nc4cncc(Cl)c4)CC[C@@H]23)[C@@]2(C)CC[C@@H](O)C[C@@H]12 [Example 194] | 1000 to 10000 | 170
33 | CC[C@H]1[C@@H](O)[C@@H]2[C@H](CC[C@]3(C)[C@@H]([C@H](C)CCOC(=O)NC4CCCC4O)CC[C@@H]23)[C@@]2(C)CC[C@@H](O)C[C@@H]12 (stereo partly drawn) [Example 195] | < 100 | 288
34 | CC[C@H]1[C@@H](O)[C@@H]2[C@H](CC[C@]3(C)[C@@H]([C@H](C)CCOC(=O)Nc4ccc5ccccc5c4)CC[C@@H]23)[C@@]2(C)CC[C@@H](O)C[C@@H]12 [Example 197] | 1000 to 10000 | 101
35 | CC[C@H]1[C@@H](O)[C@@H]2[C@H](CC[C@]3(C)[C@@H]([C@H](C)COC(=O)NC4CC4)CC[C@@H]23)[C@@]2(C)CC[C@@H](O)C[C@@H]12 [Example 198] | 1000 to 10000 | 139
36 | CC[C@H]1[C@@H](O)[C@@H]2[C@H](CC[C@]3(C)[C@@H]([C@H](C)COC(=O)NC4CCCCC4)CC[C@@H]23)[C@@]2(C)CC[C@@H](O)C[C@@H]12 [Example 199] | 1000 to 10000 | 14
37 | CC[C@H]1[C@@H](O)[C@@H]2[C@H](CC[C@]3(C)[C@@H]([C@H](C)COC(=O)N4CCC4)CC[C@@H]23)[C@@]2(C)CC[C@@H](O)C[C@@H]12 [Example 200] | 1000 to 10000 | 7
38 | CC[C@H]1[C@@H](O)[C@@H]2[C@H](CC[C@]3(C)[C@@H]([C@H](C)COC(=O)N4CCCCC4)CC[C@@H]23)[C@@]2(C)CC[C@@H](O)C[C@@H]12 [Example 201] | 100 to 1000 | 1
39 | CC[C@H]1[C@@H](O)[C@@H]2[C@H](CC[C@]3(C)[C@@H]([C@H](C)CCOC(=O)N4CCC(CO)CC4)CC[C@@H]23)[C@@]2(C)CC[C@@H](O)C[C@@H]12 [Example 202] | 100 to 1000 | 393
